Measurements from patent publication US8802663B2, “Pyrazole oxadiazole derivatives as S1P1 agonists” (Merck Serono SA, priority 2009, dated 2014).
Structures can show the parent of a compound that is named as a salt.

molecular target: S1P1 (Homo sapiens (Human), UniProt P21453); assay: 35S-GTPγS binding, membranes from CHO cells expressing S1P1; format: biochemical; conditions: CHO cell membranes
Protocol: Cells were suspended in 50 mM TRIS, pH 7.4, 2 mM EDTA, 250 mM Sucrose (buffer A) and 1× Complete protease inhibitor cocktail (Roche), and disrupted at 4° C. by N2 decompression using a cell disruption bomb (Parr Instrument). Following centrifugation at 1000 RPM for 10 min at 4° C., the supernatant was suspended in buffer A and centrifuged again at 19000 RPM for 60 min at 4° C. The pellet was then suspended in 10 mM HEPES, pH 7.4, 1 mM EDTA, 250 mM Sucrose (Buffer B), and 1× Complete EDTA-free protease inhibitor cocktail and homogenized using a potter. Membranes were flash frozen in liquid N2 and stored at −80° C. [33P]sphingosine 1-phosphate (3000 Ci/mmol; American Radiolabeled Chemicals, Inc.) was added to test compounds in DMSO. […] Specific binding was calculated by subtracting remaining radioactivity in the presence of 1000-fold excess of unlabeled SIP. Binding data were analyzed using the GraphPad Prism program.
After 60 min incubation at 30° C. on a shaker, plates were centrifuged for 10 min at 2000 RPM. […] Triplicate samples were averaged and expressed as % response relative to S1P activation in absence of compound (n=2).

Sequence of S1P1 (P21453 whole entry, species assumed): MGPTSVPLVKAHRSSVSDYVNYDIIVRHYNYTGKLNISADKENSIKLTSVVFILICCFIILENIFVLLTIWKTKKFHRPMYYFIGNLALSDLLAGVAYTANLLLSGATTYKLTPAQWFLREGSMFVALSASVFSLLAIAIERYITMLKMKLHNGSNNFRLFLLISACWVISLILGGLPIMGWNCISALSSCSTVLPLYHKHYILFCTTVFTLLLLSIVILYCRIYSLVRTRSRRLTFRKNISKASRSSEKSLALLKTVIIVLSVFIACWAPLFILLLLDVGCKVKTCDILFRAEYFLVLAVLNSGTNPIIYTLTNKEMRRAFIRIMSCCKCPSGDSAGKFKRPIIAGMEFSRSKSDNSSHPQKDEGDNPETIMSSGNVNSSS

SMILES	EC50 [µM]
Fc1ccc(F)c(-c2noc(-c3cnn(CCc4ccccc4)c3-c3ccncc3)n2)c1 [Example 99, 3-(2,5-difluorophenyl)-5-(1-phenethyl-5-(pyridin-4-yl)-1H-pyrazol-4-yl)-1,2,4-oxadiazole]	0.496
COCCc1c(-c2nc(-c3cc(F)ccc3F)no2)cnn1C1CCCCC1 [Example 103, 5-(1-cyclohexyl-5-(2-methoxyethyl)-1H-pyrazol-4-yl)-3-(2,5-difluorophenyl)-1,2,4-oxadiazole]	0.035
CNCc1ccc(-c2noc(-c3cnn(CC(C)(C)C)c3-c3ccncc3)n2)cc1 [Example 104, N-methyl-1-(4-(5-(1-neopentyl-5-(pyridin-4-yl)-1H-pyrazol-4-yl)-1,2,4-oxadiazol-3-yl)phenyl)methanamine]	0.314
CNCc1ccc(-c2noc(-c3cnn(CCc4ccccc4)c3-c3ccncc3)n2)cc1 [Example 106, N-methyl-1-(4-(5-(1-phenethyl-5-(pyridin-4-yl)-1H-pyrazol-4-yl)-1,2,4-oxadiazol-3-yl)phenyl)methanamine]	0.458
COCCc1c(-c2nc(-c3cccc(C(F)(F)F)c3)no2)cnn1C1CCCCC1 [Example 108, 5-(1-cyclohexyl-5-(2-methoxyethyl)-1H-pyrazol-4-yl)-3-(3-(trifluoromethyl)phenyl)-1,2,4-oxadiazole]	0.102
COCc1c(-c2nc(-c3ccc(CCO)cc3)no2)cnn1C1CCCCC1 [Example 109, 2-(4-(5-(1-cyclohexyl-5-(methoxymethyl)-1H-pyrazol-4-yl)-1,2,4-oxadiazol-3-yl)phenyl)ethanol]	0.312
COCCc1c(-c2nc(-c3ccc(Cn4cncn4)cc3)no2)cnn1C1CCCCC1 [Example 111, 3-(4-((1H-1,2,4-triazol-1-yl)methyl)phenyl)-5-(1-cyclohexyl-5-(2-methoxyethyl)-1H-pyrazol-4-yl)-1,2,4-oxadiazole]	0.029
FC(F)(F)c1cccc(-c2noc(-c3cnn(CC4CC4)c3-c3ccncc3)n2)c1 [Example 113, 5-(1-(cyclopropylmethyl)-5-(pyridin-4-yl)-1H-pyrazol-4-yl)-3-(3-(trifluoromethyl)phenyl)-1,2,4-oxadiazole]	0.024
COCc1c(-c2nc(-c3ccc(Cn4cccn4)cc3)no2)cnn1C1CCCCC1 [Example 114, 3-(4-((1H-pyrazol-1-yl)methyl)phenyl)-5-(1-cyclohexyl-5-(methoxymethyl)-1H-pyrazol-4-yl)-1,2,4-oxadiazole]	0.094
COCc1c(-c2nc(-c3ccc4c(c3)CN(CCC(=O)O)CC4)no2)cnn1C1CCCCC1 [Example 118, 3-(7-(5-(1-cyclohexyl-5-(methoxymethyl)-1H-pyrazol-4-yl)-1,2,4-oxadiazol-3-yl)-3,4-dihydroisoquinolin-2(1H)-yl)propanoic acid]	0.398
COCc1c(-c2nc(-c3ccc(CNC(C)C)cc3)no2)cnn1C1CCCCC1 [Example 121, N-(4-(5-(1-cyclohexyl-5-(methoxymethyl)-1H-pyrazol-4-yl)-1,2,4-oxadiazol-3-yl)benzyl)propan-2-amine]	0.04
COCc1c(-c2nc(-c3ccc(CNCC(O)CO)cc3)no2)cnn1C1CCCCC1 (stereo not drawn) [Example 122, 3-(4-(5-(1-cyclohexyl-5-(methoxymethyl)-1H-pyrazol-4-yl)-1,2,4-oxadiazol-3-yl)benzylamino)propane-1,2-diol]	0.157
COCc1c(-c2nc(-c3ccc(N)nc3)no2)cnn1C1CCCCC1 [Example 124, 5-(5-(1-cyclohexyl-5-(methoxymethyl)-1H-pyrazol-4-yl)-1,2,4-oxadiazol-3-yl)pyridin-2-amine]	0.382
COCc1c(-c2nc(-c3ccc(CCNC(C)C)cc3)no2)cnn1C1CCCCC1 [Example 128, N-(4-(5-(1-cyclohexyl-5-(methoxymethyl)-1H-pyrazol-4-yl)-1,2,4-oxadiazol-3-yl)phenethyl)propan-2-amine formate]	0.158
COCc1c(-c2nc(-c3ccc(CCN4CCC(C(=O)OC)CC4)cc3)no2)cnn1C1CCCCC1 [Example 129, Methyl 1-(4-(5-(1-cyclohexyl-5-(methoxymethyl)-1H-pyrazol-4-yl)-1,2,4-oxadiazol-3-yl)phenethyl)piperidine-4-carboxylate]	0.438

Second part, the compound after the results:

EC50 [µM]	SMILES
0.377	CC(C)(C)Cn1ncc(-c2nc(-c3ccc(CO)cc3)no2)c1-c1ccncc1 [Example 100, (4-(5-(1-neopentyl-5-(pyridin-4-yl)-1H-pyrazol-4-yl)-1,2,4-oxadiazol-3-yl)phenyl)methanol]
0.045	COCc1c(-c2nc(-c3ccc(Cn4cncn4)cc3)no2)cnn1C1CCCCC1 [Example 107, 3-(4-((1H-1,2,4-triazol-1-yl)methyl)phenyl)-5-(1-cyclohexyl-5-(methoxymethyl)-1H-pyrazol-4-yl)-1,2,4-oxadiazole]
0.04	O=C(O)C1CN(Cc2ccc(-c3noc(-c4cnn(CCc5ccccc5)c4-c4ccncc4)n3)cc2)C1 [Example 110, 1-(4-(5-(1-phenethyl-5-(pyridin-4-yl)-1H-pyrazol-4-yl)-1,2,4-oxadiazol-3-yl)benzyl)azetidine-3-carboxylic acid, formate]
0.094	CCOc1c(-c2nc(-c3cc(F)ccc3F)no2)cnn1-c1ccccc1C [Example 112, 3-(2,5-difluorophenyl)-5-(5-ethoxy-1-o-tolyl-1H-pyrazol-4-yl)-1,2,4-oxadiazole]
0.134	COCCc1c(-c2nc(-c3ccc(CO)cc3)no2)cnn1C1CCCCC1 [Example 115, (4-(5-(1-cyclohexyl-5-(2-methoxyethyl)-1H-pyrazol-4-yl)-1,2,4-oxadiazol-3-yl)phenyl)methanol]
0.086	COCc1c(-c2nc(-c3ccc4c(c3)CCNC4)no2)cnn1C1CCCCC1 [Example 116, 5-(1-cyclohexyl-5-(methoxymethyl)-1H-pyrazol-4-yl)-3-(1,2,3,4-tetrahydroisoquinolin-6-yl)-1,2,4-oxadiazole]
0.066	COCc1c(-c2nc(-c3ccc(Cn4ccnc4)cc3)no2)cnn1C1CCCCC1 [Example 119, 3-(4-((1H-imidazol-1-yl)methyl)phenyl)-5-(1-cyclohexyl-5-(methoxymethyl)-1H-pyrazol-4-yl)-1,2,4-oxadiazole]
0.082	COCc1c(-c2nc(-c3ccc(O)cc3)no2)cnn1C1CCCCC1 [Example 123, 4-(5-(1-cyclohexyl-5-(methoxymethyl)-1H-pyrazol-4-yl)-1,2,4-oxadiazol-3-yl)phenol]
0.168	COCc1c(-c2nc(-c3cccc(O)c3)no2)cnn1C1CCCCC1 [Example 126, 3-(5-(1-cyclohexyl-5-(methoxymethyl)-1H-pyrazol-4-yl)-1,2,4-oxadiazol-3-yl)phenol]
0.172	COCc1c(-c2nc(-c3ccc(CCN(C)C)cc3)no2)cnn1C1CCCCC1 [Example 127, 2-(4-(5-(1-cyclohexyl-5-(methoxymethyl)-1H-pyrazol-4-yl)-1,2,4-oxadiazol-3-yl)phenyl)-N,N-dimethylethanamine]
0.036	COCc1c(-c2nc(-c3ccc(CCN4CCC(C(=O)O)CC4)cc3)no2)cnn1C1CCCCC1 [Example 130, 1-(4-(5-(1-cyclohexyl-5-(methoxymethyl)-1H-pyrazol-4-yl)-1,2,4-oxadiazol-3-yl)phenethyl)piperidine-4-carboxylic acid]
0.181	COCc1c(-c2nc(-c3ccc(OC4CCNC4)cc3)no2)cnn1C1CCCCC1 (stereo not drawn) [Example 131, 5-(1-cyclohexyl-5-(methoxymethyl)-1H-pyrazol-4-yl)-3-(4-(pyrrolidin-3-yloxy)phenyl)-1,2,4-oxadiazole]
